For the assay, the target named is T1, NK-2 tachykinin receptor (Rattus norvegicus, UniProt P16610).
T1 construct: The vas deferens is dissected free from the surrounding connective tissue and suspended in a 3 ml organ bath; from tissue; host or cells: isolated rat vas deferens (male Wistar rat), longitudinal muscle
T1 sequence (P16610 1-390): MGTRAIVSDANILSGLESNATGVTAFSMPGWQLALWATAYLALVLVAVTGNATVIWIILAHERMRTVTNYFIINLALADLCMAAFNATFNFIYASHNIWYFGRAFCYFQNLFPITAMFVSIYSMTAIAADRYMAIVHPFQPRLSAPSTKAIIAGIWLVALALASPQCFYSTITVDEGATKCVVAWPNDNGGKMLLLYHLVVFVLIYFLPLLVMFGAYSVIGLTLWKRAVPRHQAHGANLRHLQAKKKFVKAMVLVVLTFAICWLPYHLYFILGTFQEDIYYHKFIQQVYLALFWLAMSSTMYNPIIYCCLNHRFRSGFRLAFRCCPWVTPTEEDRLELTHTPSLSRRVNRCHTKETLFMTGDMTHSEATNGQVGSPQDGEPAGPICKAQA
As to the kind of experiment: Isolated rat vas deferens preparation: antagonism of eledoisin-induced increase in field-stimulated twitch. Format: cell-based. To be noted: isolated Wistar rat vas deferens, eledoisin as standard agonist, pA2 (-logKb) estimated from dose ratio; for Kb: read-out: pA2 (against eledoisin) (converted). The protocol: The activity of the compounds of the accompanying Examples as tachykinin receptor antagonists was evaluated using the following method:
The tachykinin receptor present in the longitudinal muscle of the rat vas deferens has been characterised, using natural and synthetic tachykinins, as `NK-2`. This preparation is therefore used to determine the selectivity and potency of the peptides for this receptor sub-type.
Male Wistar rats weighing 200-300 g are killed by decapitation. The vas deferens is dissected free from the surrounding connective tissue and suspended in a 3 ml organ bath under an initial resting tension of 1 g. The tissue is maintained at 37° C. in modified KREBS HENSALEIT solution (NaCl 118.4, KCl 4.7, CaCl2 2.5, KH2 PO4 1.18, MgSO4.7H2 O 1.19, NaHCO3 25.0, D-glucose 11.1 mM), which is continuously gassed with a mixture of 95% O2 and 5% CO2. Field stimulated responses are elicited by trains of pulses delivered for 1 second every 20 seconds (7 Hz, 70-80 V, individual pulse duration 0.5 ms). […] Contractions remain reasonably constant for 3-4 hours with no spontaneous changes in resting tension. A dose-cycle of 10-15 minutes is used, drug contact time being about 3-5 minutes.
In all experiments eledoisin is used as a standard agonist. Eledoisin, in the dose range 10^-8 -3×10^-6 M, produces a dose-related increase in twitch height and, to a lesser extent, basal tension. A second dose-response curve is then constructed to the peptide under investigation.
To determine the potency of each peptide as an NK-2 antagonist, the test compound is added to the bathing medium, at an appropriate concentration, 20-30 minutes before the first dose of the second eledoisin dose-response curve. Thereafter addition of the test compound 5-10 minutes before the eledoisin dose is sufficient. The percentage increase in twitch produced by eledoisin in the presence and absence of the antagonist is expressed as a percentage of the maximum response of each individual dose-response curve. Thus all dose-response curves have the same maximum. From the dose ratio an estimate of the pA2 (-logKb) for each test compound can be determined:
pA2 =log[(DR-1)/(antagonist conc.)]

Where a SMILES comes first, the peptide text is derived from it.

Take “Cyclo(Gln-Npa-Phe-(R)Gly[ANC-2]Leu-Met) [Example 2]”: the “pA2 (against eledoisin)” value is 5.6. Turning to `CSCC[C@@H]1NC(=O)[C@H](CC(C)C)NC(=O)CNC(=O)[C@H](Cc2ccccc2)NC(=O)[C@H](Cc2c[nH]c3ccccc23)NC(=O)[C@H](CCC(N)=O)NC1=O` [Example 3, Cyclo (Gln-Trp-Phe-Gly-Leu-Met)] (cyclo(FGLMQW)), the Kb is 10 nM. For `CSCC[C@@H]1NC(=O)[C@H](CC(C)C)N2CC[C@@H](NC(=O)[C@H](Cc3ccccc3)N(C)C(=O)[C@@H](Cc3c[nH]c4ccccc34)NC(=O)[C@H](CCC(N)=O)NC(=O)[C@H](CCSC)NC(=O)[C@H](CC(C)C)N3CC[C@@H](NC(=O)[C@H](Cc4ccccc4)N(C)C(=O)[C@@H](Cc4c[nH]c5ccccc45)NC(=O)[C@H](CCC(N)=O)NC1=O)C3=O)C2=O` [Example 5b, cyclo (Gln-D-Trp-(N-Me)Phe-(R)Gly[ANC-2]Leu-Met2], the Kb is 7940 nM. In the case of “Ac-LMQWFG-NH2 [Example 6, Acetyl-Leu-Met-Gln-Trp-Phe-Gly-NH2]”, the Kb was 158 nM.
